Test results: the NIST ThermoML archive (doi:10.1021/je0340755)

Assay: xn = mol fraction of the nth substance listed
Details: 101.3 kPa, Liquid; for viscosity: Capillary tube (Ostwald / Ubbelohde) method

CCC(O)CO (stereo not given) [1,2-butanediol] + O
Details | mass density, 318.15 K [kg/m3] | mass density, 328.15 K [kg/m3] | mass density, 338.15 K [kg/m3] | speed of sound, 318.15 K [m/s] | speed of sound, 328.15 K [m/s] | speed of sound, 338.15 K [m/s] | viscosity, 328.15 K [mPa·s] | viscosity, 338.15 K [mPa·s]
x2 = 0.0471 | – | 976.76 | 968.75 | – | 1381.6 | 1365.8 | 10.36 | 6.896
x2 = 0.1478 | – | 978.45 | 970.35 | – | 1392.6 | 1376.1 | 9.126 | 6.061
x2 = 0.2481 | – | 980.12 | 971.96 | – | 1404 | 1387.3 | 7.863 | 5.201
x2 = 0.3491 | – | 982.09 | 973.85 | – | 1421.6 | 1402.7 | 6.626 | 4.361
x2 = 0.443 | – | 984.39 | 976.07 | – | 1440 | 1420.1 | 5.547 | 3.638
x2 = 0.4971 | – | 985.9 | 977.53 | 1474.1 | 1450.7 | 1430.2 | 4.962 | 3.251
x2 = 0.5552 | 995.8 | 987.59 | 979.18 | 1485.9 | 1464.3 | 1443.6 | 4.363 | 2.859
x2 = 0.6494 | 998.48 | 990.29 | 981.87 | 1510 | 1490.7 | 1468.5 | 3.447 | 2.268
x2 = 0.7491 | 1001.03 | 993 | 984.71 | 1553.8 | 1532.6 | 1507.6 | 2.533 | 1.689
x2 = 0.8547 | 1003.2 | 995.64 | 987.72 | 1614.7 | 1592.7 | 1565.4 | 1.615 | 1.114
x2 = 0.9081 | 1003 | 995.96 | 988.49 | 1630.6 | 1611.9 | 1587.3 | 1.177 | 0.843
x2 = 0.9144 | 1002.81 | 995.86 | 988.47 | 1630.5 | 1612.7 | 1588.5 | 1.127 | 0.812
x2 = 0.9255 | 1002.34 | 995.56 | 988.32 | 1629 | 1612.9 | 1590.4 | 1.04 | 0.759
x2 = 0.9353 | 1001.75 | 995.14 | 988.06 | 1626 | 1611.8 | 1591 | 0.964 | 0.713
x2 = 0.9543 | 999.98 | 993.79 | 987.1 | 1614.7 | 1604.2 | 1588.9 | 0.821 | 0.626
x2 = 0.9562 | 999.74 | 993.61 | 986.96 | 1613.2 | 1603.4 | 1588.1 | 0.807 | 0.618
x2 = 0.9598 | 999.27 | 993.23 | 986.68 | 1610 | 1601.5 | 1587.6 | 0.781 | 0.602
x2 = 0.97 | 997.69 | 991.96 | 985.68 | 1599 | 1594 | 1583.6 | 0.707 | 0.558
x2 = 0.9806 | 995.59 | 990.23 | 984.29 | 1584.6 | 1583.2 | 1577.1 | 0.633 | 0.514
x2 = 0.9902 | 993.21 | 988.23 | 982.66 | 1568.4 | 1571.2 | 1570.2 | 0.568 | 0.476
x2 = 0.9923 | 992.62 | 987.73 | 982.25 | 1564.4 | 1568.9 | 1568 | 0.554 | 0.467
x2 = 0.9956 | 991.63 | 986.9 | 981.55 | 1557.9 | 1563.4 | 1564.9 | 0.532 | 0.455
